Assay results reported in US20240425497A1, “Cbl-b Inhibitors and Methods of Use Thereof” (ARCUS BIOSCIENCES, INC., priority 2023, published 2024).

Tests used:
[1] = target: Cbl-b (Homo sapiens (Human), UniProt Q13191); assay: Cbl-b probe displacement HTRF binding assay; conditions: 0.4 nM biotinylated Cbl-b, 150 nM BODIPY probe
Method: The affinity with which compounds of the present disclosure bind to Cbl-b was assessed using probe displacement homologous time resolved fluorescence (HTRF) assays. The assays used a BODIPY™ conjugated probe (Example 54 from WO 2020264398) and biotinylated Cbl-b. The assays were performed in assay buffer consisting of 20 mM Hepes, 150 mM NaCl, 0.01% Triton X-100, 0.5 mM TCEP, 0.01% BSA. On the day of the assay, a 20 point, 1:2 master serial dilution of each compound was prepared in DMSO to span a final concentration range of 10 μM to 0 nM. Two hundred nanoliters of diluted compound was added to each well of a 384-well plate. Fifteen microliters of biotinylated-Cbl-b resuspended in assay buffer were added to each well and the plate incubated for 60 minutes at room temperature prior to addition of 5 μL of BODIPY™ probe in assay buffer. Final assay conditions included 0.4 nM of Cbl-b and 150 nM of BODIPY™ probe. After a further 15 minutes of incubation at room temperature, 5 μl of Streptavidin-Terbium cryptate reagent at 5-fold final concentration was added to each well of the 384-well plate. Binding of a probe to Cbl-b results in an increase of HTRF signal. HTRF signal was measured by Envision plate reader, while competition of a compound of the present disclosure with probe results in a decrease of signal. Percentage maximum activity in each test well was calculated based on DMSO (maximum activity, 0% displacement) and no protein control wells (baseline activity, 100% displacement). Binding affinity was determined from a dose response curve fitted using a standard four parameter fit equation. See Table 3 for data for compounds (Cbl-b Binding (IC50)).

[2] = system: Jurkat cells; assay: IL-2 secretion assay in CD3/CD28-activated Jurkat cells (AlphaLISA); assay type: cell-based, human; conditions: Homo sapiens, CD3/CD28 activation, 24 h
Method: Certain compounds were also evaluated in an IL-2 secretion assay. On the day of the assay, a 16 point, 1:2 master serial dilution of each compound was prepared in Opti-MEM to span a final concentration range of […]. Assays were set up in CORNING® tissue culture-treated 384-well microplates containing 60 nL of each dilution. Jurkat cells grown in RPMI-1640 supplemented with 10% FBS, 1% Glutamax, and 1% Pen/Strep were collected, resuspended in Opti-MEM. 50,000 cells/well and added to the compound plates. After a short spin (1200 rpm for 1 min), the plates were incubated at 37° C. for 1 hour. The cells were activated by adding 15 μL of IMMUNOCULT™ Human CD3/CD28 T Cell Activator (STEMCELL Technologies) diluted in Opti-MEM. After 24 h of incubation at 37° C., aliquots of culture supernatants were transferred to OptiPlate-384 (PerkinElmer) microplates. The level of JIL-2 secretion in the supernatants was then determined using the IL-2 (human) AiphaLISA Detection Kit (PerkinElmer) according to the manufacturer's recommendations. The AiphaLISA signal was measured using an EnVision plate reader (PerkinElmer). EC50 values were determined by fitting the data to a standard 4-parameter logistic equation. See Table 3 for data for select compounds (IL-2 Secretion (EC50)).

Sequence of Cbl-b (Q13191 whole entry, species assumed): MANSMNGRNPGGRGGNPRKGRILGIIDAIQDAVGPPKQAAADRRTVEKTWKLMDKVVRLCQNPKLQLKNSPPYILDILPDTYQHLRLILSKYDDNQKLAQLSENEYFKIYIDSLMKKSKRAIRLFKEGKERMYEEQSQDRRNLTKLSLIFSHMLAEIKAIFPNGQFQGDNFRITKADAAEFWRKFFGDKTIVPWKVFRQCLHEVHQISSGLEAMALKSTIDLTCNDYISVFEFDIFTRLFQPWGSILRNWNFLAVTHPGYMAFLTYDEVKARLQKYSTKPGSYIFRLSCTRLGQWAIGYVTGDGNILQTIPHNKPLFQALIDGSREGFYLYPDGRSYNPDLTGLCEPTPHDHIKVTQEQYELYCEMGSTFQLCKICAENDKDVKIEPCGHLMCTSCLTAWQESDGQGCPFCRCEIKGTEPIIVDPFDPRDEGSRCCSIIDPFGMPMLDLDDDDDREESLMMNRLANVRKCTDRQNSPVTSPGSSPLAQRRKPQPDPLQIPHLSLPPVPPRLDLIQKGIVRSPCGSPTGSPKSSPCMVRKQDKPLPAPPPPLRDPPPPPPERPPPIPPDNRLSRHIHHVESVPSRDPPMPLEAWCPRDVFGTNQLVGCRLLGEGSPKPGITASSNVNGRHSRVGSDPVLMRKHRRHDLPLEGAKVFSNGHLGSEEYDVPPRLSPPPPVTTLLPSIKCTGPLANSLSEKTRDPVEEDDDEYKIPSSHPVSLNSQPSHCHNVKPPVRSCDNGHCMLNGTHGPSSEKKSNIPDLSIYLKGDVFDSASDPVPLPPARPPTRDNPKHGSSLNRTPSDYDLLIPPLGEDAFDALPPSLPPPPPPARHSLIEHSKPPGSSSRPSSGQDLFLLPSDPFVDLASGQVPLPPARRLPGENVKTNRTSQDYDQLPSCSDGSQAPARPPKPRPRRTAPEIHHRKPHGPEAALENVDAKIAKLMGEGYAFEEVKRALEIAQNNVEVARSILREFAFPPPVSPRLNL

IC50 [1] [nM] | EC50 [2] [nM] | Structure (SMILES)
100 to 1000 | 100 to 1000 | C[C@H]1CCCN(Cc2cc3c(C#N)cn(-c4cncc(-c5ccc(F)cc5C(=O)N5CC(F)C5)c4)c(=O)c3[nH]2)C1 [Example 24, 2-{[(S)-3-methyl-1-piperidyl]methyl}-6-(5-{4-fluoro-2-[(3-fluoro-1-azetidinyl)carbonyl]phenyl}-3-pyridyl)-7-oxo-1,6-dihydro-1,6-diaza-4-indenecarbonitrile]
< 100 | < 100 | C[C@H]1CCCN(Cc2cc3ncn(-c4cc(-c5ccc(F)cc5C(=O)N5CC(F)C5)cc(C5CC5)n4)c(=O)c3[nH]2)C1 [Example 25, 2-{[(S)-3-methyl-1-piperidyl]methyl}-6-(6-cyclopropyl-4-{4-fluoro-2-[(3-fluoro-1-azetidinyl)carbonyl]phenyl}-2-pyridyl)-1,6-dihydro-1,4,6-triaza-7-indenone]
< 100 | < 100 | C[C@@H]1CN(Cc2cc3ncn(-c4cc(-c5ccc(F)cc5C(=O)N5CC(F)C5)cc(C5CC5)n4)c(=O)c3[nH]2)CCO1 [Example 26, 3-[6-cyclopropyl-4-[4-fluoro-2-(3-fluoroazetidine-1-carbonyl)phenyl]pyridin-2-yl]-6-[[(2R)-2-methylmorpholin-4-yl]methyl]-5H-pyrrolo[3,2-d]pyrimidin-4-one]
100 to 1000 | 1000 to 5000 | CC(O)c1cc2ncn(-c3cc(-c4ccc(F)cc4C(=O)N4CC(F)C4)cc(C4CC4)n3)c(=O)c2[nH]1 (centres unmarked) [Example 27, 6-(6-cyclopropyl-4-{4-fluoro-2-[(3-fluoro-1-azetidinyl)carbonyl]phenyl}-2-pyridyl)-2-(1-hydroxyethyl)-1,6-dihydro-1,4,6-triaza-7-indenone]
< 100 | 100 to 1000 | C[C@H]1CCCN(Cc2ccc3c(c2)C(=O)N(c2cc(-c4ccc(F)cc4C(=O)N4CC(F)C4)cc(C4CC4)n2)C3)C1 [Example 28, 6-{[(S)-3-methyl-1-piperidyl]methyl}-2-(6-cyclopropyl-4-{4-fluoro-2-[(3-fluoro-1-azetidinyl)carbonyl]phenyl}-2-pyridyl)-1-isoindolinone]
< 100 | < 100 | C[C@H]1CCCN(Cc2nc3c(C4CC4)cn(-c4cc(-c5ccc(F)cc5C(=O)N5CC(F)C5)cc(C5CC5)c4)c(=O)c3[nH]2)C1 [Example 29, 7-cyclopropyl-5-[3-cyclopropyl-5-[4-fluoro-2-(3-fluoroazetidine-1-carbonyl)phenyl]phenyl]-2-[[(3S)-3-methylpiperidin-1-yl]methyl]-3H-imidazo[4,5-c]pyridin-4-one]
< 100 | < 100 | C[C@H]1CCCN(Cc2cc3c(C4CC4)cn(-c4cc(-c5ccc(F)cc5C(=O)N5CC(F)C5)nc(C5CC5)n4)c(=O)c3[nH]2)C1 [Example 30, 4-cyclopropyl-6-[2-cyclopropyl-6-[4-fluoro-2-(3-fluoroazetidine-1-carbonyl)phenyl]pyrimidin-4-yl]-2-[[(3S)-3-methylpiperidin-1-yl]methyl]—1H-pyrrolo[2,3-c]pyridin-7-one]
1000 to 5000 | > 5000 | C[C@H]1CCCN(Cc2cc3c(C4CC4)cn(-c4nc(-c5ccc(F)cc5C(=O)N5CC(F)C5)cc(C5CC5)n4)c(=O)c3[nH]2)C1 [Example 31, 4-cyclopropyl-6-[4-cyclopropyl-6-[4-fluoro-2-(3-fluoroazetidine-1-carbonyl)phenyl]pyrimidin-2-yl]-2-[[(3S)-3-methylpiperidin-1-yl]methyl]—1H-pyrrolo[2,3-c]pyridin-7-one]
< 100 | 1000 to 5000 | O=C(c1cc(F)ccc1-c1cc(C2CC2)nc(-n2cnc3cc(C4CCNC4)[nH]c3c2=O)c1)N1CC(F)C1 (centres unmarked) [Example 32, 3-[6-cyclopropyl-4-[4-fluoro-2-(3-fluoroazetidine-1-carbonyl)phenyl]pyridin-2-yl]-6-pyrrolidin-3-yl-5H-pyrrolo[3,2-d]pyrimidin-4-one]
100 to 1000 | 100 to 1000 | O=C(c1cc(F)ccc1-c1cc(C2CC2)nc(-n2cnc3cc(C4CC4)[nH]c3c2=O)c1)N1CC(F)C1 [Example 33, 6-cyclopropyl-3-[6-cyclopropyl-4-[4-fluoro-2-(3-fluoroazetidine-1-carbonyl)phenyl]pyridin-2-yl]-5H-pyrrolo[3,2-d]pyrimidin-4-one]
< 100 | < 100 | COC[C@H](C)NCc1cc2ncn(-c3cc(-c4ccc(F)cc4C(=O)N4CC(F)(F)C4)cc(C4CC4)n3)c(=O)c2[nH]1 [Example 34, 3-[6-cyclopropyl-4-[2-(3,3-difluoroazetidine-1-carbonyl)-4-fluorophenyl]pyridin-2-yl]-6-[[[(2S)-1-methoxypropan-2-yl]amino]methyl]-5H-pyrrolo[3,2-d]pyrimidin-4-one]
< 100 | < 100 | COCCNCc1cc2ncn(-c3cc(-c4ccc(F)cc4C(=O)N4CC(F)C4)cc(C4CC4)n3)c(=O)c2[nH]1 [Example 35, 3-[6-cyclopropyl-4-[4-fluoro-2-(3-fluoroazetidine-1-carbonyl)phenyl]pyridin-2-yl]-6-[(2-methoxyethylamino)methyl]-5H-pyrrolo[3,2-d]pyrimidin-4-one]
< 100 | < 100 | CC1(NCc2cc3ncn(-c4cc(-c5ccc(F)cc5C(=O)N5CC(F)C5)cc(C5CC5)n4)c(=O)c3[nH]2)CCC1 [Example 36, 3-[6-cyclopropyl-4-[4-fluoro-2-(3-fluoroazetidine-1-carbonyl)phenyl]pyridin-2-yl]-6-[[(1-methylcyclobutyl)amino]methyl]-5H-pyrrolo[3,2-d]pyrimidin-4-one]
< 100 | 100 to 1000 | O=C(c1cc(F)ccc1-c1cc(C2CC2)nc(-n2cnc3cc(CN4CC5CCC4C5)[nH]c3c2=O)c1)N1CC(F)C1 (centres unmarked) [Example 37, 6-(2-azabicyclo[2.2.1]heptan-2-ylmethyl)-3-[6-cyclopropyl-4-[4-fluoro-2-(3-fluoroazetidine-1-carbonyl)phenyl]pyridin-2-yl]-5H-pyrrolo[3,2-d]pyrimidin-4-one]
< 100 | 100 to 1000 | COCCN(C)Cc1cc2ncn(-c3cc(-c4ccc(F)cc4C(=O)N4CC(F)(F)C4)cc(C4CC4)n3)c(=O)c2[nH]1 [Example 38, 3-[6-cyclopropyl-4-[2-(3,3-difluoroazetidine-1-carbonyl)-4-fluorophenyl]pyridin-2-yl]-6-[[2-methoxyethyl(methyl)amino]methyl]-5H-pyrrolo[3,2-d]pyrimidin-4-one]
< 100 | < 100 | O=C(c1cc(F)ccc1-c1cc(C2CC2)nc(-n2cnc3cc(CNCCC(F)(F)F)[nH]c3c2=O)c1)N1CC(F)(F)C1 [Example 39, 3-[6-cyclopropyl-4-[2-(3,3-difluoroazetidine-1-carbonyl)-4-fluorophenyl]pyridin-2-yl]-6-[(3,3,3-trifluoropropylamino)methyl]-5H-pyrrolo[3,2-d]pyrimidin-4-one]
< 100 | 100 to 1000 | COCCNCc1cc2ncn(-c3cc(-c4ccc(F)cc4C(=O)N4CC(F)(F)C4)cc(C4CC4)c3)c(=O)c2[nH]1 [Example 41, 6-{5-cyclopropyl-2′-[(3,3-difluoro-1-azetidinyl)carbonyl]-4′-fluoro-3-biphenylyl}-2-[(2-methoxyethylamino)methyl]-1,6-dihydro-1,4,6-triaza-7-indenone]
< 100 | 100 to 1000 | COC1CN(Cc2cc3ncn(-c4cc(-c5ccc(F)cc5C(=O)N5CC(F)(F)C5)cc(C5CC5)n4)c(=O)c3[nH]2)C1 [Example 43, 6-(6-cyclopropyl-4-{2-[(3,3-difluoro-1-azetidinyl)carbonyl]-4-fluorophenyl}-2-pyridyl)-2-[(3-methoxy-1-azetidinyl)methyl]-1,6-dihydro-1,4,6-triaza-7-indenone]
< 100 | < 100 | COCCNCc1cc2ncn(-c3cc(-c4ccc(F)cc4C(=O)N4CC(F)(F)C4)cc(C4CC4)n3)c(=O)c2[nH]1 [Example 44, 6-(6-cyclopropyl-4-{2-[(3,3-difluoro-1-azetidinyl)carbonyl]-4-fluorophenyl}-2-pyridyl)-2-[(2-methoxyethylamino)methyl]-1,6-dihydro-1,4,6-triaza-7-indenone]
